# Data from article PMC12345137 (mBio, 2025).
# “Also recorded” adds a separate entry of the source. Where two headings read alike, the source gives them in different places. Positions of bridges follow the written chain, without caps; N, C: chain ends. Residues, ends and D or L forms follow the SMILES beside them.
# Assays:
# S. aureus (SA) agr-IV = details: b-lactamase; ref (4); cited from earlier work
# S. aureus (SA) agr-III = details: b-lactamase, cited from earlier work
# [1] = tested on: S. epidermidis (SE) agr-I; design: method as in ref (9) (a number printed in a supplementary file, which may have a reference list of its own: not looked up in the article's list); details: HPLC d-toxin, ref (9); cited from earlier work
# [2] = tested on: S. aureus agr-I P3-YFP reporter strain; assay: Quorum sensing inhibition resistance development experiment; assay type: cell-based, Staphylococcus aureus; details: flow cytometry
# Experimental: The next day, YFP expression levels were assessed by flow cytometry (YFP: excitation 500 nm, emission 541 nm), and the overnight cultures were diluted 1:250 in fresh TSB medium containing CAM and 33 or no peptide (final volume 2.0 mL) and incubated overnight at 37°C in a shaking incubator. The procedure was repeated in total for 15 days, and the passaged cultures were subsequently frozen at −80°C. The passaged cultures were inoculated from frozen stocks in 2.0 mL TSB medium containing CAM in 15 mL centrifugal tubes and incubated overnight at 37°C in a shaking incubator.
# [3] = tested on: S. epidermidis (SE) agr-II; details: fluorescence; at 100 nM; ref (11); cited from earlier work
# S. aureus (SA) agr-I = tested on: S. aureus (SA) agr-I; design: method as in ref (5) (a number printed in a supplementary file, which may have a reference list of its own: not looked up in the article's list); details: hemolysis; ref (5); cited from earlier work
compound,measurement,setting,value
"CC[C@H](C)[C@@H]1NC(=O)[C@H](Cc2ccccc2)NC(=O)[C@H](CC(=O)O)NC(=O)[C@@H](NC(=O)[C@@H](NC(=O)[C@H](CO)NC(=O)[C@@H](N)Cc2ccc(O)cc2)[C@@H](C)O)CSC(=O)[C@H](CCSC)NC1=O [compound 1, S. aureus AIP-I] (H-YSTCDFIM; thioester 4-C)",EC50,S. aureus (SA) agr-IV,26000 nM
same,IC50,S. aureus (SA) agr-III; ref (2),3.1 ± 1.3 nM
same,IC50,S. aureus (SA) agr-III; ref (4),3 nM
same,"inhibition at 1000 nM, SE agr-I",[1],no inhibition
"NCCCC[C@H](N)C(=O)N[C@@H](Cc1ccc(O)cc1)C(=O)N[C@@H](Cc1ccc(O)cc1)C(=O)N1CCC[C@H]1C(=O)N[C@H]1CSC(=O)[C@H](Cc2ccccc2)NC(=O)[C@H](Cc2ccc(O)cc2)NC(=O)CNC(=O)[C@H](Cc2c[nH]c3ccccc23)NC1=O [compound 33, S. simulans AIP-II] (H-KYYPCWGYF; thioester 5-C)",agr activity during daily passaging for 15 days,[2]; 33 at 2 nM or 100 nM,full repression of agr activity; also recorded: repressed agr activity
same,susceptibility to QS inhibition after 15 passages compared with non-passaged reporter strain,[2]; passaged cultures treated with 33 (10–0.08 nM),no change in potency; also recorded: remained equally susceptible
"S. aureus AIP-III D4A [compound 57, reference compound]","inhibition at 100 nM, SE agr-II",[3],~ 70%
same,IC50,S. aureus (SA) agr-I,0.082 nM
